Consider eleven compounds from ChEMBL document CHEMBL1147164, “Synthesis, stereochemistry and antimicrobial evaluation of some N-morpholinoacetyl-2,6-diarylpiperidin-4-ones” (2007).

SMILES strings stand for the structures. Values after ≈ are worked out from the molar mass of the structure shown. Active and inactive are the calls of the source. The rule behind the calls is not given here.

The term MIC denotes the least concentration at which growth counts as inhibited. A high value points to a need for much substance.

Assay [1] concerns Escherichia coli. In words: Antibacterial activity against Escherichia coli after 24 hrs by twofold serial dilution method. It counts as functional.
Assay [2] concerns Salmonella typhi. In words: Antibacterial activity against Salmonella typhi after 24 hrs by twofold serial dilution method. It counts as functional, Salmonella enterica subsp. enterica serovar Typhi. As to conditions: Salmonella enterica.
The subject of the next assay is Staphylococcus aureus. In words: Antibacterial activity against Staphylococcus aureus after 24 hrs by twofold serial dilution method. It counts as functional.
Another assay relates to Pseudomonas aeruginosa. Put plainly: Antibacterial activity against Pseudomonas aeruginosa after 24 hrs by twofold serial dilution method. The format is functional.
In assay [3] the test system is Candida albicans. In words: Antifungal activity against Candida albicans after 72 to 96 hrs by twofold serial dilution method. It counts as functional.
Another assay concerns Rhizopus. Put plainly: Antifungal activity against Rhizopus sp. after 72 to 96 hrs by twofold serial dilution method. It counts as functional.
The next assay relates to Aspergillus niger. In words: Antifungal activity against Aspergillus niger after 72 to 96 hrs by twofold serial dilution method. The format is functional.
For assay [4], the system named is Aspergillus flavus. In words: Antifungal activity against Aspergillus flavus after 72 to 96 hrs by twofold serial dilution method. The format is functional.
Assay [5] has as its system Salmonella typhi. Put plainly: Antibacterial activity against Salmonella typhi at 200 ug/ml after 24 hrs by twofold serial dilution method. The format is functional, organism-based. As to conditions: Salmonella enterica subsp. enterica serovar Typhi.
Assay [6] relates to Candida albicans. Put plainly: Antifungal activity against Candida albicans at 200 ug/ml after 72 to 96 hrs by twofold serial dilution method. The format is functional, organism-based.
For assay [7], the system named is Escherichia coli. Put plainly: Antibacterial activity against Escherichia coli at 200 ug/ml after 24 hrs by twofold serial dilution method. It counts as functional, organism-based.
The subject of assay [8] is Aspergillus flavus. In words: Antifungal activity against Aspergillus flavus at 200 ug/ml after 72 to 96 hrs by twofold serial dilution method. It counts as functional, organism-based.

With `O=C(O)c1cn(C2CC2)c2cc(N3CCNCC3)c(F)cc2c1=O` [CIPROFLOXACIN], the values for the MIC against Escherichia coli [1] and with Salmonella typhi [2] were 25 µg/mL (≈ 75.4 µM) and 50 µg/mL (≈ 151 µM), respectively.
Regarding `CC1C(=O)C(C)C(c2ccccc2)N(C(=O)CN2CCOCC2)C1c1ccccc1` (stereo not drawn), the MIC against Escherichia coli [1] is 100 µg/mL (≈ 246 µM); with Staphylococcus aureus it was 50 µg/mL (≈ 123 µM); in the assay with Pseudomonas aeruginosa, 25 µg/mL (≈ 61.5 µM); in the assay with Salmonella typhi [2] it was 50 µg/mL (≈ 123 µM); with Candida albicans [3], 50 µg/mL (≈ 123 µM); in the assay with Rhizopus, 12.5 µg/mL (≈ 30.7 µM). The MIC stood at 25 µg/mL (≈ 61.5 µM) in the assay with Aspergillus niger and 50 µg/mL (≈ 123 µM) in the assay with Aspergillus flavus [4].
With `CCC1C(=O)CC(c2ccccc2)N(C(=O)CN2CCOCC2)C1c1ccccc1` (stereo not drawn), the MIC amounted to 50 µg/mL (≈ 123 µM) in the assay on Escherichia coli [1]; 50 µg/mL (≈ 123 µM) against Staphylococcus aureus; 25 µg/mL (≈ 61.5 µM) in the assay on Pseudomonas aeruginosa; 100 µg/mL (≈ 246 µM) against Salmonella typhi [2]; 100 µg/mL (≈ 246 µM) in the assay with Candida albicans [3]; 200 µg/mL (≈ 492 µM) with Rhizopus. In addition, the MIC in the assay with Aspergillus niger and with Aspergillus flavus [4] was 100 µg/mL (≈ 246 µM) each time.
Turning to `CC(C)C1C(=O)CC(c2ccccc2)N(C(=O)CN2CCOCC2)C1c1ccccc1` (stereo not drawn), the MIC against Escherichia coli [1] was 100 µg/mL (≈ 238 µM); against Staphylococcus aureus it was 100 µg/mL (≈ 238 µM); in the assay with Pseudomonas aeruginosa, 50 µg/mL (≈ 119 µM); in the assay with Salmonella typhi [2], 200 µg/mL (≈ 476 µM); with Candida albicans [3], 50 µg/mL (≈ 119 µM); against Rhizopus, 25 µg/mL (≈ 59.4 µM). The minimum inhibitory concentration (MIC) against Aspergillus niger came out at 50 µg/mL (≈ 119 µM); with Aspergillus flavus [4], 100 µg/mL (≈ 238 µM).
In the case of `CC1C(=O)C(C)C(c2ccc(Cl)cc2)N(C(=O)CN2CCOCC2)C1c1ccc(Cl)cc1` (stereo not drawn), the MIC worked out at 25 µg/mL (≈ 52.6 µM) against Escherichia coli [1]; 25 µg/mL (≈ 52.6 µM) against Staphylococcus aureus; 50 µg/mL (≈ 105 µM) against Pseudomonas aeruginosa; 100 µg/mL (≈ 210 µM) against Salmonella typhi [2]; 6.25 µg/mL (≈ 13.1 µM) with Candida albicans [3]; 25 µg/mL (≈ 52.6 µM) with Rhizopus. The MIC was determined as 25 µg/mL (≈ 52.6 µM) against Aspergillus niger and 6.25 µg/mL (≈ 13.1 µM) against Aspergillus flavus [4].
For `Cc1ccc(C2C(C)C(=O)C(C)C(c3ccc(C)cc3)N2C(=O)CN2CCOCC2)cc1` (stereo not drawn), the MIC came out at 25 µg/mL (≈ 57.5 µM) against Escherichia coli [1]; 50 µg/mL (≈ 115 µM) with Staphylococcus aureus; 6.25 µg/mL (≈ 14.4 µM) in the assay on Pseudomonas aeruginosa; 6.25 µg/mL (≈ 14.4 µM) against Salmonella typhi [2]; 50 µg/mL (≈ 115 µM) with Candida albicans [3]; 25 µg/mL (≈ 57.5 µM) against Rhizopus. In addition, the MIC with Aspergillus niger turned out to be 50 µg/mL (≈ 115 µM); with Aspergillus flavus [4] it was 25 µg/mL (≈ 57.5 µM).
`COc1ccc(C2C(C)C(=O)C(C)C(c3ccc(OC)cc3)N2C(=O)CN2CCOCC2)cc1` (stereo not drawn): the MIC was found to be 12.5 µg/mL (≈ 26.8 µM) with Escherichia coli [1]; 6.25 µg/mL (≈ 13.4 µM) against Staphylococcus aureus; 12.5 µg/mL (≈ 26.8 µM) against Pseudomonas aeruginosa; 25 µg/mL (≈ 53.6 µM) in the assay on Salmonella typhi [2]; 100 µg/mL (≈ 214 µM) against Candida albicans [3]; 50 µg/mL (≈ 107 µM) with Rhizopus. The MIC was 50 µg/mL (≈ 107 µM) against Aspergillus niger and 100 µg/mL (≈ 214 µM) in the assay on Aspergillus flavus [4].
Turning to `CC1C(=O)CC(c2ccccc2)N(C(=O)CN2CCOCC2)C1c1ccccc1` (stereo not drawn), the minimal inhibitory concentration (MIC) with Escherichia coli [1] stood at 100 µg/mL (≈ 255 µM); with Staphylococcus aureus, 200 µg/mL (≈ 510 µM); against Pseudomonas aeruginosa it was 50 µg/mL (≈ 127 µM); against Rhizopus, 100 µg/mL (≈ 255 µM); against Aspergillus niger, 50 µg/mL (≈ 127 µM); against Aspergillus flavus [4] it was 50 µg/mL (≈ 127 µM). The outcome in the assay with Salmonella typhi [5] and with Candida albicans [6] was inactive.
As for `C[C@@H]1[C@H](O)[C@@H](C)/C=C/C=C/C=C/C=C/C=C/C=C/C=C/[C@H](O[C@@H]2O[C@H](C)[C@@H](O)[C@H](N)[C@@H]2O)C[C@@H]2O[C@](O)(C[C@@H](O)C[C@@H](O)[C@H](O)CC[C@@H](O)C[C@@H](O)CC(=O)O[C@H]1C)C[C@H](O)[C@H]2C(=O)O` [AMPHOTERICIN B], the MIC came to 25 µg/mL (≈ 27.1 µM) with Candida albicans [3], 25 µg/mL (≈ 27.1 µM) against Rhizopus, 50 µg/mL (≈ 54.1 µM) in the assay on Aspergillus niger and 50 µg/mL (≈ 54.1 µM) in the assay on Aspergillus flavus [4].
With `O=C1CC(c2ccccc2)N(C(=O)CN2CCOCC2)C(c2ccccc2)C1` (stereo not drawn), the MIC in the assay on Staphylococcus aureus is 200 µg/mL (≈ 528 µM); with Pseudomonas aeruginosa it was 100 µg/mL (≈ 264 µM); against Salmonella typhi [2] it was 100 µg/mL (≈ 264 µM); in the assay with Rhizopus, 100 µg/mL (≈ 264 µM); against Aspergillus niger, 200 µg/mL (≈ 528 µM). Besides, the outcome in the assay on Escherichia coli [7], in the assay on Candida albicans [6] and with Aspergillus flavus [8] was inactive.
For `COc1ccc(C2CC(=O)C(C)C(c3ccc(OC)cc3)N2C(=O)CN2CCOCC2)cc1` (stereo not drawn), the MIC stood at 100 µg/mL (≈ 221 µM) with Escherichia coli [1]; 50 µg/mL (≈ 110 µM) in the assay on Staphylococcus aureus; 25 µg/mL (≈ 55.2 µM) with Pseudomonas aeruginosa; 50 µg/mL (≈ 110 µM) against Salmonella typhi [2]; 25 µg/mL (≈ 55.2 µM) against Candida albicans [3]; 6.25 µg/mL (≈ 13.8 µM) in the assay with Rhizopus. The MIC in the assay with Aspergillus niger worked out at 50 µg/mL (≈ 110 µM); in the assay with Aspergillus flavus [4] it was 12.5 µg/mL (≈ 27.6 µM).
